# PMC9916685, “Discovery of Small Molecule COX-1 and Akt Inhibitors as Anti-NSCLC Agents Endowed with Anti-Inflammatory Action” (International Journal of Molecular Sciences, 2023)
# What was measured:
# [1] = test system: COX-2; details: cited from earlier work
# [2] = test system: COX-1; details: cited from earlier work
# [3] = test system: A549 human lung adenocarcinoma cells; test: MTT cytotoxicity assay, A549 cells; assay type: cell-based; details: mean ± SD
# Procedure: (§1) A549 human lung adenocarcinoma and L929 mouse fibroblast cell lines were obtained from American Type Culture Collection (ATCC) (Manassas, VA, USA). Both cell lines were cultured, and drug treatments were carried out as previously reported.
# (§2) MTT assay was conducted as previously explained in the literature with small modifications. Cisplatin was used as a positive control. The assay was performed in triplicate. IC50 data (µM) were expressed as mean ± SD.
# [4] = test system: Akt; test: Akt Colorimetric In-Cell ELISA in A549 cells; assay type: cell-based, human; details: 24 h, mean ± SD, read-out: Akt inhibition IC50 in A549 cells
# Procedure: The assay was performed in triplicate. IC50 data (µM) were expressed as mean ± SD.
# [5] = test system: A549 cells; test: Annexin V-FITC/PI flow cytometry-based apoptosis detection; details: A549, 24 h; for percentage of A549 cells undergoing apoptosis (early and late): sum of early and late
# [6] = test system: L929 mouse fibroblast (normal) cells; test: MTT cytotoxicity assay, L929 normal cells; assay type: cell-based; details: for IC50: MTT, L929 mouse fibroblast cells, mean ± SD; for cytotoxicity against L929 cells at effective concentrations: in words, at concentrations effective for COX-1 inhibition
# Procedure: as §1, §2
# [7] = molecular target: T1, COX-1 (Ovis aries, UniProt P05979); test: COX (ovine) colorimetric inhibitor screening assay, COX-1; assay type: biochemical; details: for IC50: ovine COX-1, colorimetric, triplicate, mean ± SD; for SI (IC50 for COX-1/IC50 for COX-2): selectivity index
# T1 construct: purchased Cayman
# T1 sequence (P05979 25-600): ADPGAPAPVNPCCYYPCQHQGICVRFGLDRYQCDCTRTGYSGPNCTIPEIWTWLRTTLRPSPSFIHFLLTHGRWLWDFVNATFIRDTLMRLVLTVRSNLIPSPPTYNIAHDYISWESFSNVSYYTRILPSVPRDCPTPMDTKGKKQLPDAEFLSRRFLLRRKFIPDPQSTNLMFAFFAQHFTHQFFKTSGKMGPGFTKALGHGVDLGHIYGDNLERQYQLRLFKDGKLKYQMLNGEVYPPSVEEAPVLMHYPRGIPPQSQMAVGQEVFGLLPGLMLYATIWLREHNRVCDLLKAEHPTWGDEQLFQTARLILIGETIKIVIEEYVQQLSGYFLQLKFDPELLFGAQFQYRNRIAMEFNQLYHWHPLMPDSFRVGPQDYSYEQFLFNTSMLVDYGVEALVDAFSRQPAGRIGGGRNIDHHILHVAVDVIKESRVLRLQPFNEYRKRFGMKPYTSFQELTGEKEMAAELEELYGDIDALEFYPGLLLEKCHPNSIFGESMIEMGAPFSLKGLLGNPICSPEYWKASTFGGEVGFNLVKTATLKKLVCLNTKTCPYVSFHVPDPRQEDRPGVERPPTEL
# Procedure: (§3) COX (ovine) Colorimetric Inhibitor Screening Assay (Cayman, Ann Arbor, MI, USA) was conducted to detect the peroxidase component of COX-1 and COX-2 according to the manufacturer’s instructions. The assay was performed in triplicate. Half maximal inhibitory concentration (IC50) data (µM) were expressed as mean ± SD.
# [8] = test system: nitric oxide (NO); test: LPS-induced sepsis model, serum NO levels; assay type: in vivo, Sprague Dawley rats; details: rat serum, 24 h after LPS; 3b, 4a 10 mg/kg/day, indomethacin 5 mg/kg by gastric intubation six days; n = 8
# Procedure: (§4) Male albino Sprague Dawley rats (~250–300 g) were procured from the Medical and Surgical Experimental Animals Application and Research Center of Eskisehir Osmangazi University (ESOGU). In the animal house, the rats were housed in stainless steel cages under standard atmospheric conditions at 22 ± 1 °C and exposed to 12 h/12 h light/dark cycle. Food and water were given ad libitum. All experiments and protocols reported in this work were approved by ESOGU Animal Experiments Local Ethics Committee (10 December 2018/700).
# (§5) Compounds 3b, 4a, and indomethacin (Sigma-Aldrich, St. Louis, MO, USA) were dissolved in 5% dimethyl sulfoxide (DMSO) and then diluted. The final DMSO concentration in the solution was 0.5% (v/v). The agents were administered by gastric intubation.
# (§6) Rats were randomly divided into five groups (n = 8) as control group, LPS group, test groups (3b and 4a), and reference group. 0.5% DMSO was used as control solution for LPS group. Indomethacin (5 mg/kg) was used as a reference agent. Control group (Group I) was fed with basal rat chow throughout the experimental period. LPS group (Group II) was fed with basal rat chow for six days (only 0.5% DMSO was administered by gastric intubation) and LPS was injected intraperitoneally in 0.9% sodium chloride solution only once on the 7th day. Groups III, IV, and V were fed with basal rat chow and compound 3b (10 mg/kg/day), compound 4a (10 mg/kg/day), and indomethacin were administered, respectively, by gastric intubation for six days. Then, LPS was injected intraperitoneally in 0.9% sodium chloride solution only once on the 7th day for three groups as well. After 24 h of LPS injection, all rats were sacrificed by ketamine (80 mg/kg) ve xylazine (10 mg/kg) anesthesia via intraperitoneal route. Blood samples were collected via cardiac puncture in tubes containing gel for obtaining serum.
# Nitrate and nitrite, which represent the best index of the entire NO production, are the stable end products of NO in vivo. Nitrate in serum was assayed by a slight modification of the Cd-reduction method as reported by Cortas and Wakid.
# [9] = test system: myeloperoxidase (MPO); test: LPS-induced sepsis model, serum MPO levels; assay type: in vivo, Sprague Dawley rats; details: for change of MPO activity compared to the LPS group: in words, LPS-induced sepsis, rats; for MPO (U/L): rat serum, 24 h after LPS 1 mg/kg i.p., 3b, 4a 10 mg/kg/day, indomethacin 5 mg/kg by gastric intubation for six days, mean ± SD, n = 8
# Procedure: as §4, §5, §6
# Suzuki’s assay was performed with slight modifications. The rate of MPO-catalyzed oxidation of 3,3′,5,5′-tetramethylbenzidine (TMB) was followed by recording the absorbance increase at 655 nm for 5 min. Taking into account the linear phase of the reaction, the absorbance change was measured per minute. The enzyme activity was expressed as the amount of the enzyme producing one absorbance change per minute under assay conditions.
# [10] = LPS-induced sepsis model, serum ALT and AST levels; assay type: in vivo, Sprague Dawley rats; details: rat serum, 24 h after LPS; 3b, 4a 10 mg/kg/day, indomethacin 5 mg/kg by gastric intubation six days; mean ± SD, n = 8
# Procedure: as §4, §5, §6
# Serum ALT and AST levels were determined using enzyme-based Roche Diagnostics kit in Roche Modular Systems analyzer by photometric assay based on the manufacturer’s instructions. The other serum samples were stored at −80 °C (Thermo Electron, Waltham, MA, USA) for subsequent analyses of MPO and NO levels.
# [11] = molecular target: T2, COX-2 (Ovis aries, UniProt P79208); test: COX (ovine) colorimetric inhibitor screening assay, COX-2; assay type: biochemical; details: ovine COX-2, colorimetric, triplicate, mean ± SD
# T2 construct: purchased Cayman
# T2 sequence (P79208 17-603): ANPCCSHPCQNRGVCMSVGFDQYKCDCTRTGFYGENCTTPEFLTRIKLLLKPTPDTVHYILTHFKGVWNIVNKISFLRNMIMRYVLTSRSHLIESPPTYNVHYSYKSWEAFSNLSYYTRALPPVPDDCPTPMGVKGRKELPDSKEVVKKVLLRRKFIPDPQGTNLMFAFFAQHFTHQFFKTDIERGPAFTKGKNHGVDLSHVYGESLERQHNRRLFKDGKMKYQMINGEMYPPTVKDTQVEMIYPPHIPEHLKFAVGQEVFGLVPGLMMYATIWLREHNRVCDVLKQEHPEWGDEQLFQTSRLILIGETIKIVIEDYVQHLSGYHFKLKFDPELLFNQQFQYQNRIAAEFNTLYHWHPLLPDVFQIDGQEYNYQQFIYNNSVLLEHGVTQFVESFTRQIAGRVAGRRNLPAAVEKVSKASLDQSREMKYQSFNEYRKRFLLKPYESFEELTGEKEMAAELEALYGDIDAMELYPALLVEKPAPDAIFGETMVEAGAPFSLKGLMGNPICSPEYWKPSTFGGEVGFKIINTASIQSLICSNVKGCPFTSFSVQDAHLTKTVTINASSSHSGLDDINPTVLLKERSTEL
# Procedure: as §3
# [12] = test system: Akt; parameters: method as in doi:10.2174/1570180817999200618163507; details: 5RP7 H-ras oncogene transformed rat embryonic fibroblast cell line; cited from earlier work
structure (smiles),measurement,setting,value
N#Cc1ccc(C(=O)C=Cc2c[nH]c3ccc(Br)cc23)cc1 [3-(5-bromo-1H-indol-3-yl)-1-(4-cyanophenyl)prop-2-en-1-one],COX-2 IC50,[1],9.50 µg/mL
same,COX-1 IC50,[2],8.10 µg/mL
COc1ccc2[nH]cc(C=CC(=O)c3ccc(S(C)(=O)=O)cc3)c2c1 [3-(5-methoxy-1H-indol-3-yl)-1-(4-(methylsulfonyl)phenyl)prop-2-en-1-one],COX-1 IC50,[2],8.60 µg/mL
N#Cc1ccc(Oc2ccc(C=NNC(=S)Nc3ccc(S(=O)(=O)N4CCCCC4)cc3)cc2)cc1 [4-[4-(piperidin-1-ylsulfonyl)phenyl]-1-[4-(4-cyanophenoxy)benzylidene]thiosemicarbazide],IC50,[2],1.89 µM
O=[N+]([O-])c1ccc(Oc2ccc(C=NNC(=S)Nc3ccc(S(=O)(=O)N4CCCCC4)cc3)cc2)cc1 [4-[4-(piperidin-1-ylsulfonyl)phenyl]-1-[4-(4-nitrophenoxy)benzylidene]thiosemicarbazide],IC50,[1],12.6 µM
same,IC50,[2],13.4 µM
"N.N.[Cl][Pt][Cl] [Cisplatin, reference compound]",IC50,[3],22.7 ± 4.04 µM
same,IC50,[4],9.3 ± 2.55 µM
same,Early Apoptosis (%),[5]; compound at IC50,2.43%
same,Late Apoptosis (%),[5]; compound at IC50,2.03%
same,Necrosis (%),[5]; compound at IC50,2.34%
same,Early Apoptosis (%),[5]; compound at IC50/2,3.69%
same,Late Apoptosis (%),[5]; compound at IC50/2,2.88%
same,Necrosis (%),[5]; compound at IC50/2,0.72%
same,percentage of A549 cells undergoing apoptosis (early and late),[5]; compound at IC50/2,6.57%
same,percentage of A549 cells undergoing apoptosis (early and late),[5]; compound at IC50,4.46%
"O=C(Cc1c[nH]c2ccccc12)NN=Cc1ccc(N2CCOCC2)cc1 [Compound 3b, 2-(1H-Indol-3-yl)-N′-(4-morpholinobenzylidene)acetohydrazide]",IC50,[6],177 ± 5.77 µM
same,cytotoxicity against L929 cells at effective concentrations,[6],did not show cytotoxicity
same,IC50,[3]; Homo sapiens,89.7 ± 10.8 µM
same,IC50,[4],32.5 ± 4.95 µM
same,IC50,[7],8.9 ± 0.14 µM
same,SI (IC50 for COX-1/IC50 for COX-2),[7],0.13
same,Early Apoptosis (%),[5]; compound at IC50,6.84%
same,Late Apoptosis (%),[5]; compound at IC50,6.01%
same,Necrosis (%),[5]; compound at IC50,0.48%
same,Early Apoptosis (%),[5]; compound at IC50/2,5.89%
same,Late Apoptosis (%),[5]; compound at IC50/2,5.78%
same,Necrosis (%),[5]; compound at IC50/2,0.36%
same,percentage of A549 cells undergoing apoptosis (early and late),[5]; compound at IC50/2,11.67%
same,percentage of A549 cells undergoing apoptosis (early and late),[5]; compound at IC50,12.85%
same,"NO level, 25% Percentile",[8],0.316 µmol/L
same,"NO level, 75% Percentile",[8],2.772 µmol/L
same,"NO level, Median",[8],0.667 µmol/L
same,change of MPO activity compared to the LPS group,[9],slightly decreased
same,MPO (U/L),[9],1.50 ± 0.81 U/L
same,ALT (U/L),[10],50.25 ± 21.86 U/L
same,AST (U/L),[10],114.90 ± 22.04 U/L
same,melting point,,306 to 307 °C
same,IC50,[11],71 ± 1.41 µM
"O=C(Cc1c[nH]c2ccccc12)NNC(=S)Nc1ccc(Br)cc1 [Compound 4a, 4-(4-Bromophenyl)-1-[2-(1H-indol-3-yl)acetyl]thiosemicarbazide]",IC50,[6],84 ± 19.7 µM
same,cytotoxicity against L929 cells at effective concentrations,[6],did not show cytotoxicity
same,IC50,[3]; Homo sapiens,179 ± 77.6 µM
same,IC50,[4],45.3 ± 6.51 µM
same,IC50,[7],10 ± 0.13 µM
same,SI (IC50 for COX-1/IC50 for COX-2),[7],0.13
same,Early Apoptosis (%),[5]; compound at IC50/2,7.07%
same,Late Apoptosis (%),[5]; compound at IC50/2,6.62%
same,Necrosis (%),[5]; compound at IC50/2,0.60%
same,Early Apoptosis (%),[5]; compound at IC50/4,7.34%
same,Late Apoptosis (%),[5]; compound at IC50/4,5.19%
same,Necrosis (%),[5]; compound at IC50/4,0.37%
same,"NO level, 25% Percentile",[8],1.369 µmol/L
same,"NO level, 75% Percentile",[8],4.0 µmol/L
same,"NO level, Median",[8],2.509 µmol/L
same,change of MPO activity compared to the LPS group,[9],significantly decreased
same,MPO (U/L),[9],0.84 ± 0.26 U/L
same,ALT (U/L),[10],48.29 ± 26.88 U/L
same,AST (U/L),[10],132.30 ± 37.06 U/L
same,melting point,,187 to 189 °C
same,IC50,[11],76.5 ± 6.36 µM
"COc1ccc2c(c1)c(CC(=O)O)c(C)n2C(=O)c1ccc(Cl)cc1 [Indomethacin, reference compound]","NO level, 25% Percentile",[8],0.667 µmol/L
same,"NO level, 75% Percentile",[8],3.123 µmol/L
same,"NO level, Median",[8],1.281 µmol/L
same,MPO (U/L),[9],1.06 ± 0.73 U/L
same,ALT (U/L),[10],44.00 ± 14.64 U/L
same,AST (U/L),[10],123.50 ± 32.14 U/L
COc1ccc(-c2ccnc(SCC(=O)NN=Cc3ccccc3)n2)cc1 [N′-benzylidene-2-[(4-(4-methoxyphenyl)pyrimidin-2-yl)thio]acetohydrazide],inhibition of Akt IC50,[12],0.50 µg/mL
